A word on the IC50: it is the concentration at which inhibition is half-maximal. For orientation: melting point means the temperature, or range, at which the solid turns liquid.

Molecules are shown by their SMILES. Structures can show the parent of a compound that is named as a salt. Bounds are passed on as bounds.

The first data set addresses T1, human RORγt (Homo sapiens, UniProt P51449).
T1 construct: the full-length cDNA of human RORγt; expressed in transfected cells; host or cells: COS-7 (monkey kidney)
T1 sequence (P51449 1-497 isoform P51449-2): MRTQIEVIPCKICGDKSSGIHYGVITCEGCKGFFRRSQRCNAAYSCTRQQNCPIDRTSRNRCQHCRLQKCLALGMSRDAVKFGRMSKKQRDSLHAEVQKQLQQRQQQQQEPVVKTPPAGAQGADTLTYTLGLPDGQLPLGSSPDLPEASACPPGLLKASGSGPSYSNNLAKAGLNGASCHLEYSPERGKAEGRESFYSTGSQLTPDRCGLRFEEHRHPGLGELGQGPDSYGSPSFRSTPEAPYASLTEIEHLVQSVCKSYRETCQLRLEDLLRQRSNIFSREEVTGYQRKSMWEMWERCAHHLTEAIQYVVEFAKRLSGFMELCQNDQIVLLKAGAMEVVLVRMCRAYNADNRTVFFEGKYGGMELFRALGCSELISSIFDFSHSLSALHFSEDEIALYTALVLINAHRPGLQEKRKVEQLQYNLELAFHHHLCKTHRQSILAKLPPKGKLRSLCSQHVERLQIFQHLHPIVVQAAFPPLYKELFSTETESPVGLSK
Description: RORE Luciferase/RORγt transactivation assay. The conditions noted are these: COS-7 cells transfected with human IL-17 promoter luciferase reporter and RORγt plasmid; 20 h with compound; read-out: IC50, RORγt activity inhibition. Format: cell-based. Here is the method: It is well known that RORγ binds to a conserved non-coding sequence (CNS) enhancer element in the IL-17 promoter.
Culture medium was changed every 2 days.
The 4.3 Kb human IL-17 promoter containing the RORγ-specific CNS enhancer element was PCR amplified from human genomic DNA and cloned into a pGL3-TKLuc2Cp reporter plasmid.
The luciferase reporter plasmid and the RORγt overexpression plasmid were transfected into COS-7 cell line using 4 μLJetPEI™/μg of DNA. Briefly, 150 ng of DNA (ration ½ between RORE-Tk Luc2Cp and cDNA RORγt or the empty vector for the negative control) was served to transfect adherent COS-7 cells in a […] culture flask, in complete medium (see cos-7 cell line culture).
Cells were then detached (using trypsin) and washed by centrifugation at 300 g for 10 minutes. Cell pellet was resuspended in serum free/phenol red free DMEM and seeded in 384 well plates at a density of 10000 cells/well and then incubated for 4 h at 37° C.
Compounds were dissolved in 100% DMSO to obtain 10 mM stock solutions. For each compound, test concentrations were diluted in serum free/phenol red free DMEM using the Genesis Freedom 200™ (TECAN) and added to the cells to obtain a 0.3% DMSO final concentration (in a final volume of 40 μL per well).
The luciferase activity was then measured with 40 μL/well steady-Glo Luciferase assay system (Promega, Madison, Wis.) and after incubation at room temperature for 30 minutes. The luminescence was estimated using the Ultra384 reader (TECAN). Data were collected and analyzed using GraphPad Prism software (GraphPad Software V5.02, San Diego Calif. USA). IC50 in μM and Emax in % were reported for each compound.
In the case of `Cc1ccc(C(NC(=O)C2(c3ccc4c(ccn4CCC(=O)O)c3)CC2)c2ccc(C)o2)c(C)c1` (centres unmarked) [Cpd. 152, 3-[5-(1-{[(2,4-dimethylphenyl)(5-methylfuran-2-yl)methyl]carbamoyl}cyclopropyl)-1H-indol-1-yl]propanoic acid], the IC50 was in the range of 10 to 100 nM. Same read-out and setting: the figure for `Cc1cnc(C(NC(=O)C2(c3ccc4c(c3)OCS(=O)(=O)N4)CC2)c2ccc(C)o2)c(C)c1` (centres unmarked) [Cpd. 153, N-[(3,5-dimethylpyridin-2-yl)(5-methylfuran-2-yl)methyl]-1-(2,2-dioxo-1,3-dihydro-4,2,1-benzoxathiazin-6-yl)cyclopropane-1-carboxamide] is 100 to 1000 nM; for `Cc1ccc(C(NC(=O)C2(c3ccc4c(ccn4CCC(=O)O)c3)CC2)c2ccc(C)o2)c(N2CCCCC2)c1` (centres unmarked) [Cpd. 154, 3-{5-[1-({[4-methyl-2-(piperidin-1-yl)phenyl](5-methylfuran-2-yl)methyl}carbamoyl)cyclopropyl]-1H-indol-1-yl}propanoic acid] it is under 10 nM. On the same count and under the same terms, under `Cc1ccc(C(NC(=O)C2(c3ccc4c(c3)CCC4O)CC2)c2ccc(C)o2)c(C)c1` (centres unmarked) [Cpd. 155, N-[(2,4-dimethylphenyl)(5-methylfuran-2-yl)methyl]-1-(1-hydroxy-2,3-dihydro-1H-inden-5-yl)cyclopropane-1-carboxamide] stands 10 to 100 nM; under `Cc1ccc(C(NC(=O)C2(c3ccc4c(c3)OCC(=O)N4)CC2)c2ccc(C)o2)c(N(C)C)c1` (centres unmarked) [Cpd. 156, N-{[2-(dimethylamino)-4-methylphenyl](5-methylfuran-2-yl)methyl}-1-(3-oxo-3,4-dihydro-2H-1,4-benzoxazin-7-yl)cyclopropane-1-carboxamide], 10 to 100 nM.

Consider `Cc1ccc(C(NC(=O)C2(c3ccc4c(c3)CS(=O)(=O)N4CC3CCOCC3)CC2)c2ccc(C)o2)c(C)c1` (centres unmarked) [Cpd. 157, N-[(2,4-dimethylphenyl)(5-methylfuran-2-yl)methyl]-1-[1-(oxan-4-ylmethyl)-2,2-dioxo-1,3-dihydro-2,1-benzothiazol-5-yl]cyclopropane-1-carboxamide], for which the IC50 was under 10 nM. Regarding `Cc1ccc(C(NC(=O)C2(c3cc(F)c4c(c3)CC(=O)N4)CC2)c2ccc(C)o2)c(C)c1` (centres unmarked) [Cpd. 158, N-[(2,4-dimethylphenyl)(5-methylfuran-2-yl)methyl]-1-(7-fluoro-2-oxo-2,3-dihydro-1H-indol-5-yl)cyclopropane-1-carboxamide], the half-inhibitory concentration (IC50) was in the range of 10 to 100 nM. In the case of `Cc1ccc(C(NC(=O)C2(c3ccc4c(c3)C(F)(F)C(=O)N4)CC2)c2ccc(C)o2)c(C)c1` (centres unmarked) [Cpd. 159, 1-(3,3-difluoro-2-oxo-2,3-dihydro-1H-indol-5-yl)-N-[(2,4-dimethylphenyl)(5-methylfuran-2-yl)methyl]cyclopropane-1-carboxamide], the IC50 lay in the range of 100 to 1000 nM. Still for that read-out and setting: the figure for `Cc1ccc(C(NC(=O)C2(c3ccc4c(c3)CS(=O)(=O)N4C)CC2)c2ccc(Cl)o2)c(C)c1` (centres unmarked) [Cpd. 160, N-[(5-chlorofuran-2-yl)(2,4-dimethylphenyl)methyl]-1-(1-methyl-2,2-dioxo-1,3-dihydro-2,1-benzothiazol-5-yl)cyclopropane-1-carboxamide] is 10 to 100 nM; for `Cc1ccc(C(NC(=O)C2(c3ccc4c(c3)OCO4)CC2)c2ccc(C)o2)c(Br)c1` (centres unmarked) [Cpd. 161, 1-(2H-1,3-benzodioxol-5-yl)-N-[(2-bromo-4-methylphenyl)(5-methylfuran-2-yl)methyl]cyclopropane-1-carboxamide] it is 100 to 1000 nM.

With `Cc1ccc(C(NC(=O)C2(c3ccc4c(c3)CS(=O)(=O)N4CC3CCOCC3)CC2)c2ccc(C)o2)c(N2CCCCC2)c1` (centres unmarked) [Cpd. 162, N-{[4-methyl-2-(piperidin-1-yl)phenyl](5-methylfuran-2-yl)methyl}-1-[1-(oxan-4-ylmethyl)-2,2-dioxo-1,3-dihydro-2,1-benzothiazol-5-yl]cyclopropane-1-carboxamide], the IC50 is 10 to 100 nM.

With `Cc1ccc(C(NC(=O)C2(c3ccc4c(c3)CS(=O)(=O)N4CC3CCOCC3)CC2)c2ccc(C)o2)c(Br)c1` (centres unmarked) [Cpd. 163, N-[(2-bromo-4-methylphenyl)(5-methylfuran-2-yl)methyl]-1-[1-(oxan-4-ylmethyl)-2,2-dioxo-1,3-dihydro-2,1-benzothiazol-5-yl]cyclopropane-1-carboxamide], the IC50 was in the range of 10 to 100 nM.

For the molecule `Cc1ccc(C(NC(=O)C2(c3ccc4c(c3)OCO4)CC2)c2ccc(C)o2)c(N2CCCCC2)c1` (centres unmarked) [Cpd. 164, 1-(2H-1,3-benzodioxol-5-yl)-N-{[4-methyl-2-(piperidin-1-yl)phenyl](5-methylfuran-2-yl)methyl}cyclopropane-1-carboxamide], the IC50 lay in the range of 100 to 1000 nM. Still for that read-out and setting: under `Cc1ccc(C(NC(=O)C2(c3ccc4c(c3)CCC4=NO)CC2)c2ccc(C)o2)c(C)c1` (centres unmarked) [Cpd. 165, N-[(2,4-dimethylphenyl)(5-methylfuran-2-yl)methyl]-1-[1-(hydroxyimino)-2,3-dihydro-1H-inden-5-yl]cyclopropane-1-carboxamide] stands 10 to 100 nM; under `Cc1ccc(C(NC(=O)Cc2ccc3c(c2)CS(=O)(=O)N3CC2CCOCC2)c2ccc(C)o2)c(C)c1` (centres unmarked) [Cpd. 166, N-[(2,4-dimethylphenyl)(5-methylfuran-2-yl)methyl]-2-[1-(oxan-4-ylmethyl)-2,2-dioxo-1,3-dihydro-2,1-benzothiazol-5-yl]acetamide], 10 to 100 nM; under `Cc1ccc(C(NC(=O)Cc2ccc3c(c2)CS(=O)(=O)N3CC2CCOCC2)c2ccc(C)o2)c(N2CCCCC2)c1` (centres unmarked) [Cpd. 167, N-{[4-methyl-2-(piperidin-1-yl)phenyl](5-methylfuran-2-yl)methyl}-2-[1-(oxan-4-ylmethyl)-2,2-dioxo-1,3-dihydro-2,1-benzothiazol-5-yl]acetamide], 10 to 100 nM.

Consider `Cc1ccc(C(NC(=O)C2(c3ccc4c(c3)OC(C)(C)OC4)CC2)c2ccc(C)o2)c(C)c1` (centres unmarked) [Cpd. 168, 1-(2,2-dimethyl-2,4-dihydro-1,3-benzodioxin-7-yl)-N-[(2,4-dimethylphenyl)(5-methylfuran-2-yl)methyl]cyclopropane-1-carboxamide], for which the IC50 was 100 to 1000 nM. On the same count and under the same terms, the figure for `Cc1ccc(C(NC(=O)C2(c3ccc4c(c3)COC(C)(C)O4)CC2)c2ccc(C)o2)c(C)c1` (centres unmarked) [Cpd. 169, 1-(2,2-dimethyl-2,4-dihydro-1,3-benzodioxin-6-yl)-N-[(2,4-dimethylphenyl)(5-methylfuran-2-yl)methyl]cyclopropane-1-carboxamide] is 100 to 1000 nM; for `Cc1ccc(C(NC(=O)C2(c3ccc4[nH]cc(C(C)(C)CO)c4c3)CC2)c2ccc(C)o2)c(C)c1` (centres unmarked) [Cpd. 170, N-[(2,4-dimethylphenyl)(5-methylfuran-2-yl)methyl]-1-[3-(1-hydroxy-2-methylpropan-2-yl)-1H-indol-5-yl]cyclopropane-1-carboxamide] it is 10 to 100 nM. `Cc1ccc(C(NC(=O)C2(c3ccc4c(c3)OCS(=O)(=O)N4)CC2)c2ccc(C)o2)c(C(F)(F)F)c1` (centres unmarked) [Cpd. 171, 1-(2,2-dioxo-1,3-dihydro-4,2,1-benzoxathiazin-6-yl)-N-{[4-methyl-2-(trifluoromethyl)phenyl](5-methylfuran-2-yl)methyl}cyclopropane-1-carboxamide]: the IC50 was 10 to 100 nM.

Test system in a further data set: not given
Experiment: not given
Settings: not given
The molecule `Cc1ccc(C(NC(=O)Cc2ccc3c(c2)CC(=O)N3C)c2ccc(C)o2)c(N2CCCCC2)c1` (centres unmarked) (as salt: HCl) [Cpd. 38, N-{[4-methyl-2-(piperidin-1-yl)phenyl](5-methylfuran-2-yl)methyl}-2-(1-methyl-2-oxo-2,3-dihydro-1H-indol-5-yl)acetamide] had a melting point of 215 °C. Molecule `Cc1ccc(C(NC(=O)Cc2ccc3c(c2)C(C)(O)C(=O)N3C)c2ccc(C)o2)c(N2CCCCC2)c1` (centres unmarked) (as salt: HCl) [Cpd. 39, 2-(3-hydroxy-1,3-dimethyl-2-oxo-2,3-dihydro-1H-indol-5-yl)-N-{[4-methyl-2-(piperidin-1-yl)phenyl](5-methylfuran-2-yl)methyl}acetamide] came in with a melting point of 103 °C.

As for `Cc1ccc(C(NC(=O)Cc2ccc3c(c2)C(C)(C)C(=O)N3C)c2ccc(C)o2)c(N2CCCCC2)c1` (centres unmarked) (as salt: HCl) [Cpd. 40, N-{[4-methyl-2-(piperidin-1-yl)phenyl](5-methylfuran-2-yl)methyl}-2-(1,3,3-trimethyl-2-oxo-2,3-dihydro-1H-indol-5-yl)acetamide], the melting point came out at 75 °C.
